Source: patent publication US8591908B2, “Immunogen for preparation of therapeutic vaccines or drugs for treatment of hepatitis B and the producing method and use thereof” (Institute of Immunology, PLA, priority 2002, dated 2013)
Ends that are not written are not given here. * marks the point of attachment. Palmitoyl = CCCCCCCCCCCCCCCC(=O)*

How the values were obtained:
[1] = system: peripheral blood mononuclear lymphocytes of HLA-A2+ healthy person; experiment: FIG. 2: induction of lymphocyte proliferation, 3H-TdR; assay type: cell-based, human
Text: FIG. 2 indicated the effect of inducing the proliferation of lymphocytes.

HBV-DNA transgenic mice = experiment: HBV transgenic mice: IFN-γ secreting cells, ELI-SPOT; assay type: in vivo; conditions: 30th day after end of immunization
Procedure: (§1) The levels of cytokines such as IFN-γ, IL-4, etc. in supernatant were measured by the ELISA method, and the activity of the test drug (CH3(CH2)14COKSSQYIKANSKFIGITEAAASIVSPFIPLLGGGDPRVRGLYFPA) (SEQ ID NO:5) for inducing the differentiation of T cells into Th1/Th2 type was analyzed. […] The expression frequency of IFN-γ secreting cells in peripheral blood lymphocytes was measured by the ELI-SPOT method in said supernatant. […] On the 10th, 20th and 30th day after the end of the three immunizations, bloods were removed, serum isolated, and the contents of HBsAg and HBV-DNA in the serum were separately measured by the ELISA method and quantitative PCR method.
The expression frequency of IFN-γ secreting cells in peripheral blood lymphocytes was measured by the ELI-SPOT method.

[2] = system: HBV DNA in HBV transgenic mice; experiment: HBV transgenic mice: HBV DNA in serum, quantitative PCR; assay type: in vivo; conditions: 10th, 20th, 30th day after three immunizations, 10-1000 U/mouse
Procedure: as §1

[3] = Stability in different solution systems (RP-HPLC); assay type: physicochemical
Text: εPA44 was soluble and stable in DMSO, but poorly soluble and stable in other solutions (see Table 5). Thus, DMSO was used as the mobile phase for SEC.

Balb/c mice = experiment: Th1 activation, serum Th1/Th2 cytokines by ELISA; assay type: in vivo; conditions: serum 3 weeks after immunization
Procedure: Balb/c mice (both male and female) of 2-3 Months old were divided into 8 groups, and were immunized with εPA44 at both postpede palmas once a week for three times at different doses: 0.001 nmol, 0.01 nmol, 0.1 nmol, 0.5 nmol, 1 nmol, 10 nmol, 20 nmol, and 40 nmol respectively. 3 weeks after immunization, the mice were bled by removing their eyeballs and serums were collected. Th1/Th2 cytokines were tested by ELISA.

[4] = system: T2 cells, E6 cells, and HepG2.2.15 cells; experiment: HBV-specific effective CTL from hepatitis patients' PBMC, cytotoxicity; assay type: cell-based, human
Procedure: Acute and chronic hepatitis blank control groups, acute hepatitis+test drug group and chronic hepatitis+test drug group were included. The PBMC's from the patients were cultured in vitro and stimulated repetitively to generate antigen-specific effective CTL cells and amplified their number. Then they were used to cytotoxically kill peptide antigen pre-coated T2 cells, E6 cells, and HepG2.2.15 cells.

[5] = Isoelectric point, ampholyte pH gradient isoelectric focusing; assay type: physicochemical; conditions: 8N urea, TritonX-114
Procedure: Supported ampholyte pH gradient isoelectric focusing was employed. Pretreatment: 8N urea and 2% TritonX-114. Urea at the corresponding concentration and 0.5% TritonX-114 were also added to polyacrylamide gel. Conventional Coomassie brilliant blue was used for dyeing.

K(Palmitoyl)SSQYIKANSKFIGITEAAAFLPSDFFPSVGGGDPRVRGLYFPA-OH [SEQ ID NO:1, CH3(CH2)14COKSSQYIKANSKFIGITEAAAFLPSDFFPSVGGGDPRVRGLYFPA]
minimal effective dose ([1]; lymphocyte proliferation): 0.1 ng
range with dose-effect dependence ([1]; lymphocyte proliferation): 0.1 to 10 ng
induction of the proliferation of lymphocytes ([1]; with IL-2, γ-count after 3H-TdR): significantly induce the proliferation of lymphocytes
expression frequency of IFN-γ secreting cells in peripheral blood lymphocytes (HBV-DNA transgenic mice; 10-1000 U/mouse): increased with the increase of the immunization dose
highest expression frequency of IFN-γ secreting cells (HBV-DNA transgenic mice; IFN-α2b at 15000 U/mouse): 3660 IFN-γ secreting cells/10^6 PBMC
HBV-DNA in the serum (copy number, replication level) [2]: obviously decreased in a manner of dose-dependence and time-dependence
Stability ([3]; 50% Acetonitrile-0.1% TFA): Unstable
Stability ([3]; 50% Ethanol-10 mmol/L HCl): Unstable
Stability ([3]; 50% Ethanol-10 mmol/L phosphoric acid): Unstable
Stability ([3]; DMSO): Stable*
dose inducing the generation of IFN-γ and IL-2 (Balb/c mice): 0.01 nmol
target cell-specific lysis rate ([4]; PBMCs from acute hepatitis patient in convalescent phase): up to 68.6%
target cell-specific lysis rate ([4]; PBMCs from chronic hepatitis patient): up to 42.6%
specific killing of target cells ([4]; PBMCs of hepatitis patients): specifically kill aforesaid three target cell lines
isoelectric point [5]: 7.2 pH
